A compilation of properties of binary mixtures (doi:10.1016/j.molliq.2005.06.001)

Assay: xn = mol fraction of the nth substance listed
Conditions: 298 K, 101 kPa

CCCn1cc[n+](C)c1.[Br-] + CC1COC(=O)O1
Conditions | electrical conductivity [S/m]
x1 = 0.004 | 0.09
x2 = 0 | 0.03
x2 = 0.19 | 0.07
x2 = 0.27 | 0.09
x2 = 0.38 | 0.15
x2 = 0.46 | 0.26
x2 = 0.49 | 0.26
x2 = 0.55 | 0.42
x2 = 0.61 | 0.47
x2 = 0.76 | 0.59
x2 = 0.82 | 0.69
x2 = 0.89 | 0.73
x2 = 0.93 | 0.63
x2 = 0.96 | 0.49

CC[n+]1ccn(C)c1.F[B-](F)(F)F + CC1COC(=O)O1
Conditions | electrical conductivity [S/m]
x1 = 0.001 | 0.05
x2 = 0 | 1.39
x2 = 0.37 | 1.73
x2 = 0.55 | 1.85
x2 = 0.65 | 1.87
x2 = 0.75 | 1.8
x2 = 0.95 | 0.99

CNC=O + CC[n+]1ccn(C)c1.F[B-](F)(F)F
Conditions | electrical conductivity [S/m]
x1 = 0.05 | 1.59
x1 = 0.11 | 1.79
x1 = 0.31 | 2.26
x1 = 0.57 | 2.97
x1 = 0.72 | 3.15
x1 = 0.78 | 3.26
x1 = 0.86 | 3.05
x1 = 0.91 | 2.62
x2 = 0.001 | 0.34

Cn1ccnc1 + CC[n+]1ccn(C)c1.F[B-](F)(F)F
Conditions | electrical conductivity [S/m]
x1 = 0.1 | 1.67
x1 = 0.19 | 1.72
x1 = 0.31 | 1.83
x1 = 0.41 | 1.91
x1 = 0.51 | 2.01
x1 = 0.61 | 2.11
x1 = 0.7 | 2.15
x1 = 0.8 | 2.12
x1 = 0.85 | 1.85
x1 = 0.9 | 1.7
x1 = 0.95 | 1.18
x2 = 0.003 | 0.14

CCCn1cc[n+](C)c1.[Br-] + O
Conditions | electrical conductivity [S/m]
x1 = 0.0002 | 0.16
x2 = 0 | 0.03
x2 = 0.22 | 0.155
x2 = 0.36 | 0.46
x2 = 0.51 | 1.22
x2 = 0.79 | 6.23
x2 = 0.96 | 8.92

CC[n+]1ccn(C)c1.F[B-](F)(F)F + O
Conditions | electrical conductivity [S/m]
x1 = 0.0001 | 0.08
x1 = 0.01 | 4.13
x2 = 0 | 1.39
x2 = 0.16 | 2.04
x2 = 0.34 | 2.92
x2 = 0.47 | 4.11
x2 = 0.66 | 6.17
x2 = 0.9 | 9.28
x2 = 0.92 | 8.78
x2 = 0.95 | 8.32
x2 = 0.97 | 6.32
